From US20220281848A1, “PYRAZOLE-SUBSTITUTED PYRROLIDINONES AS HERBICIDES” (FMC Corporation, priority 2019, published 2022)

Tested on: plants
Assay: Test D pre-emergence, other plants of Tables D1 and D3
Type: in vivo
Details: for damage to plant, ALOMY / damage to plant, AVEFA / damage to plant, BEAVA / damage to plant, BROTE / damage to plant, BRSNN / damage to plant, HORVW / damage to plant, SINAR: pre-emergence, 100=total damage, 0=no damage; for ABUTH damage to plant (100=total damage; 0=no damage) / AMARE damage to plant (100=total damage; 0=no damage) / DIGSA damage to plant (100=total damage; 0=no damage) / ECHCG damage to plant (100=total damage; 0=no damage) / ORYSA damage to plant (100=total damage; 0=no damage) / PANMI damage to plant (100=total damage; 0=no damage) / SETFA damage to plant (100=total damage; 0=no damage): preemergent
Outline: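 Seeds treated with herbicide safener; sown in soil; glasshouse, 16 h light, 65% humidity. Sprayed day 1 (pre) or ~day 12 (post). Spray in 0.2% v/v adjuvant. Scored 0–100 damage: 20 DAA pre, 15 d post.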

CN1CC(c2cnn(C)c2C(F)(F)F)C(C(=O)Nc2cccc(F)c2F)C1=O (racemic) [Compound 25]
damage to plant, ALOMY (rate 15, 20 DAA): 0 | damage to plant, AVEFA (rate 15, 20 DAA): 0 | damage to plant, BEAVA (rate 15, 20 DAA): 0 | damage to plant, BROTE (rate 15, 20 DAA): 0 | damage to plant, BRSNN (rate 15, 20 DAA): 0 | damage to plant, HORVW (rate 15, 20 DAA): 0 | damage to plant, SINAR (rate 15, 20 DAA): 0 | damage to plant, ALOMY (rate 30, 20 DAA): 0 | damage to plant, AVEFA (rate 30, 20 DAA): 0 | damage to plant, BEAVA (rate 30, 20 DAA): 0 | damage to plant, BROTE (rate 30, 20 DAA): 0 | damage to plant, BRSNN (rate 30, 20 DAA): 0 | damage to plant, HORVW (rate 30, 20 DAA): 0 | damage to plant, SINAR (rate 30, 20 DAA): 0 | damage to plant, ALOMY (rate 60, 20 DAA): 0 | damage to plant, AVEFA (rate 60, 20 DAA): 0 | damage to plant, BEAVA (rate 60, 20 DAA): 0 | damage to plant, BROTE (rate 60, 20 DAA): 0 | damage to plant, BRSNN (rate 60, 20 DAA): 0 | damage to plant, HORVW (rate 60, 20 DAA): 0 | damage to plant, SINAR (rate 60, 20 DAA): 0 | damage to plant, ALOMY (rate 130, 20 DAA): 0 | damage to plant, AVEFA (rate 130, 20 DAA): 0 | damage to plant, BEAVA (rate 130, 20 DAA): 0 | damage to plant, BROTE (rate 130, 20 DAA): 0 | damage to plant, BRSNN (rate 130, 20 DAA): 0 | damage to plant, HORVW (rate 130, 20 DAA): 0 | damage to plant, SINAR (rate 130, 20 DAA): 0 | damage to plant, ALOMY (rate 250, 20 DAA): 0 | damage to plant, AVEFA (rate 250, 20 DAA): 0 | damage to plant, BEAVA (rate 250, 20 DAA): 0 | damage to plant, BROTE (rate 250, 20 DAA): 0 | damage to plant, BRSNN (rate 250, 20 DAA): 0 | damage to plant, HORVW (rate 250, 20 DAA): 0 | damage to plant, SINAR (rate 250, 20 DAA): 0 | damage to plant, ALOMY (rate 500, 20 DAA): 0 | damage to plant, AVEFA (rate 500, 20 DAA): 0 | damage to plant, BEAVA (rate 500, 20 DAA): 0 | damage to plant, BROTE (rate 500, 20 DAA): 10 | damage to plant, BRSNN (rate 500, 20 DAA): 20 | damage to plant, HORVW (rate 500, 20 DAA): 0 | damage to plant, SINAR (rate 500, 20 DAA): 0 | ABUTH damage to plant (100=total damage; 0=no damage) (Rates 15, 20 DAA): 0 | AMARE damage to plant (100=total damage; 0=no damage) (Rates 15, 20 DAA): 0 | DIGSA damage to plant (100=total damage; 0=no damage) (Rates 15, 20 DAA): 0 | ECHCG damage to plant (100=total damage; 0=no damage) (Rates 15, 20 DAA): 0 | ORYSA damage to plant (100=total damage; 0=no damage) (Rates 15, 20 DAA): 0 | PANMI damage to plant (100=total damage; 0=no damage) (Rates 15, 20 DAA): 0 | SETFA damage to plant (100=total damage; 0=no damage) (Rates 15, 20 DAA): 0 | ABUTH damage to plant (100=total damage; 0=no damage) (Rates 30, 20 DAA): 0 | AMARE damage to plant (100=total damage; 0=no damage) (Rates 30, 20 DAA): 0 | DIGSA damage to plant (100=total damage; 0=no damage) (Rates 30, 20 DAA): 60 | ECHCG damage to plant (100=total damage; 0=no damage) (Rates 30, 20 DAA): 20 | ORYSA damage to plant (100=total damage; 0=no damage) (Rates 30, 20 DAA): 0 | PANMI damage to plant (100=total damage; 0=no damage) (Rates 30, 20 DAA): 0 | SETFA damage to plant (100=total damage; 0=no damage) (Rates 30, 20 DAA): 0 | ABUTH damage to plant (100=total damage; 0=no damage) (Rates 60, 20 DAA): 0 | AMARE damage to plant (100=total damage; 0=no damage) (Rates 60, 20 DAA): 0 | DIGSA damage to plant (100=total damage; 0=no damage) (Rates 60, 20 DAA): 80 | ECHCG damage to plant (100=total damage; 0=no damage) (Rates 60, 20 DAA): 60 | ORYSA damage to plant (100=total damage; 0=no damage) (Rates 60, 20 DAA): 0 | PANMI damage to plant (100=total damage; 0=no damage) (Rates 60, 20 DAA): 0 | SETFA damage to plant (100=total damage; 0=no damage) (Rates 60, 20 DAA): 10 | ABUTH damage to plant (100=total damage; 0=no damage) (Rates 130, 20 DAA): 0 | AMARE damage to plant (100=total damage; 0=no damage) (Rates 130, 20 DAA): 0 | DIGSA damage to plant (100=total damage; 0=no damage) (Rates 130, 20 DAA): 90 | ECHCG damage to plant (100=total damage; 0=no damage) (Rates 130, 20 DAA): 90 | ORYSA damage to plant (100=total damage; 0=no damage) (Rates 130, 20 DAA): 0 | PANMI damage to plant (100=total damage; 0=no damage) (Rates 130, 20 DAA): 0 | SETFA damage to plant (100=total damage; 0=no damage) (Rates 130, 20 DAA): 60 | ABUTH damage to plant (100=total damage; 0=no damage) (Rates 250, 20 DAA): 0 | AMARE damage to plant (100=total damage; 0=no damage) (Rates 250, 20 DAA): 0 | DIGSA damage to plant (100=total damage; 0=no damage) (Rates 250, 20 DAA): 90 | ECHCG damage to plant (100=total damage; 0=no damage) (Rates 250, 20 DAA): 90 | ORYSA damage to plant (100=total damage; 0=no damage) (Rates 250, 20 DAA): 0 | PANMI damage to plant (100=total damage; 0=no damage) (Rates 250, 20 DAA): 0 | SETFA damage to plant (100=total damage; 0=no damage) (Rates 250, 20 DAA): 60 | ABUTH damage to plant (100=total damage; 0=no damage) (Rates 500, 20 DAA): 0 | AMARE damage to plant (100=total damage; 0=no damage) (Rates 500, 20 DAA): 0 | DIGSA damage to plant (100=total damage; 0=no damage) (Rates 500, 20 DAA): 90 | ECHCG damage to plant (100=total damage; 0=no damage) (Rates 500, 20 DAA): 90 | ORYSA damage to plant (100=total damage; 0=no damage) (Rates 500, 20 DAA): 0 | PANMI damage to plant (100=total damage; 0=no damage) (Rates 500, 20 DAA): 0 | SETFA damage to plant (100=total damage; 0=no damage) (Rates 500, 20 DAA): 90
